In PubChem BioAssay (NCI):
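Cells were grown in 96-well plates and exposed to each compound for 48 hours at five concentrations; endpoints were interpolated linearly between bracketing concentrations, or set to the highest concentration if not reached. GI50 marks 50% less growth. The concentration for full growth arrest is given as TGI.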

Columns and labels:
Assay in all cases: NCI-60 cell line screen, 48 h
786-0 renal = system: 786-0 renal
A498 renal = system: A498 renal
A549 NSCLC = system: A549 NSCLC
ACHN renal = system: ACHN renal
BT-549 breast = system: BT-549 breast
CAKI-1 renal = system: CAKI-1 renal
CCRF-CEM leukemia = system: CCRF-CEM leukemia
COLO 205 colon = system: COLO 205 colon
DU-145 prostate = system: DU-145 prostate
EKVX NSCLC = system: EKVX NSCLC
HCC-2998 colon = system: HCC-2998 colon
HCT-116 colon = system: HCT-116 colon
HCT-15 colon = system: HCT-15 colon
HL-60(TB) leukemia = system: HL-60(TB) leukemia
HOP-62 NSCLC = system: HOP-62 NSCLC
HOP-92 NSCLC = system: HOP-92 NSCLC
HS 578T breast = system: HS 578T breast
HT29 colon = system: HT29 colon
IGROV1 ovarian = system: IGROV1 ovarian
K-562 leukemia = system: K-562 leukemia
KM12 colon = system: KM12 colon
LOX IMVI melanoma = system: LOX IMVI melanoma
M14 melanoma = system: M14 melanoma
MALME-3M melanoma = system: MALME-3M melanoma
MCF7 breast = system: MCF7 breast
MDA-MB-231 breast = system: MDA-MB-231 breast
MDA-MB-435 = system: MDA-MB-435
MOLT-4 leukemia = system: MOLT-4 leukemia
NCI-H226 lung = system: NCI-H226 lung
NCI-H23 lung = system: NCI-H23 lung
NCI-H460 lung = system: NCI-H460 lung
NCI-H522 lung = system: NCI-H522 lung
NCI/ADR-RES ovarian = system: NCI/ADR-RES ovarian
OVCAR-3 ovarian = system: OVCAR-3 ovarian
OVCAR-4 ovarian = system: OVCAR-4 ovarian
OVCAR-5 ovarian = system: OVCAR-5 ovarian
OVCAR-8 ovarian = system: OVCAR-8 ovarian
PC-3 prostate = system: PC-3 prostate
RPMI-8226 leukemia = system: RPMI-8226 leukemia
RXF 393 renal = system: RXF 393 renal
SF-268 CNS = system: SF-268 CNS
SF-295 CNS = system: SF-295 CNS
SF-539 CNS = system: SF-539 CNS
SK-MEL-2 melanoma = system: SK-MEL-2 melanoma
SK-MEL-28 melanoma = system: SK-MEL-28 melanoma
SK-MEL-5 melanoma = system: SK-MEL-5 melanoma
SK-OV-3 ovarian = system: SK-OV-3 ovarian
SN12C renal = system: SN12C renal
SNB-19 CNS = system: SNB-19 CNS
SNB-75 CNS = system: SNB-75 CNS
SR leukemia = system: SR leukemia
SW-620 colon = system: SW-620 colon
T-47D breast = system: T-47D breast
TK-10 renal = system: TK-10 renal
U251 CNS = system: U251 CNS
UACC-257 melanoma = system: UACC-257 melanoma
UACC-62 melanoma = system: UACC-62 melanoma
UO-31 renal = system: UO-31 renal

Question: How did the GI50 (786-0 renal) turn out when `COc1ccc(/C=C/C(=O)c2cc3c(N)c(C(=O)Nc4cccc(Cl)c4C)sc3nc2C)cc1` was run?
Answer: 411 nM

Question: And the TGI (786-0 renal)?
Answer: > 13.6 µM

Question: What about the GI50 (A498 renal) of the same compound?
Answer: 174 nM

Question: And the TGI (A498 renal)?
Answer: 781 nM

Question: And the GI50 (A549 NSCLC)?
Answer: 261 nM

Question: What about the TGI (A549 NSCLC) of the same compound?
Answer: > 50 µM

Question: What about the GI50 (ACHN renal) of the same compound?
Answer: 330 nM

Question: And the TGI (ACHN renal)?
Answer: > 50 µM

Question: And the GI50 (BT-549 breast)?
Answer: 606 nM

Question: What about the TGI (BT-549 breast) of the same compound?
Answer: 4.25 µM

Question: And the GI50 (CAKI-1 renal)?
Answer: 284 nM

Question: And the TGI (CAKI-1 renal)?
Answer: > 26.7 µM

Question: What about the GI50 (CCRF-CEM leukemia) of the same compound?
Answer: 205 nM

Question: And the TGI (CCRF-CEM leukemia)?
Answer: > 35.3 µM

Question: And the GI50 (COLO 205 colon)?
Answer: 169 nM

Question: And the TGI (COLO 205 colon)?
Answer: 751 nM

Question: What about the GI50 (DU-145 prostate) of the same compound?
Answer: 218 nM

Question: What about the TGI (DU-145 prostate) of the same compound?
Answer: > 50 µM

Question: What about the GI50 (EKVX NSCLC) of the same compound?
Answer: 384 nM

Question: What about the TGI (EKVX NSCLC) of the same compound?
Answer: > 50 µM

Question: What about the GI50 (HCC-2998 colon) of the same compound?
Answer: 350 nM

Question: And the TGI (HCC-2998 colon)?
Answer: 2920 nM

Question: What about the GI50 (HCT-116 colon) of the same compound?
Answer: 188 nM

Question: What about the GI50 (HCT-15 colon) of the same compound?
Answer: 185 nM

Question: And the TGI (HCT-15 colon)?
Answer: > 50 µM

Question: What about the GI50 (HL-60(TB) leukemia) of the same compound?
Answer: 140 nM

Question: And the TGI (HL-60(TB) leukemia)?
Answer: 460 nM

Question: And the GI50 (HOP-62 NSCLC)?
Answer: 288 nM

Question: And the TGI (HOP-62 NSCLC)?
Answer: > 50 µM

Question: What about the GI50 (HOP-92 NSCLC) of the same compound?
Answer: 876 nM

Question: What about the TGI (HOP-92 NSCLC) of the same compound?
Answer: 10.6 µM

Question: What about the GI50 (HS 578T breast) of the same compound?
Answer: 173 nM

Question: What about the TGI (HS 578T breast) of the same compound?
Answer: > 50 µM

Question: And the GI50 (HT29 colon)?
Answer: 170 nM

Question: What about the TGI (HT29 colon) of the same compound?
Answer: > 50 µM

Question: And the GI50 (IGROV1 ovarian)?
Answer: 251 nM

Question: What about the TGI (IGROV1 ovarian) of the same compound?
Answer: > 50 µM

Question: What about the GI50 (K-562 leukemia) of the same compound?
Answer: 181 nM

Question: And the TGI (K-562 leukemia)?
Answer: > 50 µM

Question: And the GI50 (KM12 colon)?
Answer: 214 nM

Question: What about the TGI (KM12 colon) of the same compound?
Answer: 6.82 µM

Question: What about the GI50 (LOX IMVI melanoma) of the same compound?
Answer: 243 nM

Question: And the TGI (LOX IMVI melanoma)?
Answer: 1250 nM

Question: What about the GI50 (M14 melanoma) of the same compound?
Answer: 146 nM

Question: What about the TGI (M14 melanoma) of the same compound?
Answer: > 50 µM

Question: What about the GI50 (MALME-3M melanoma) of the same compound?
Answer: 1250 nM

Question: What about the TGI (MALME-3M melanoma) of the same compound?
Answer: > 50 µM

Question: And the GI50 (MCF7 breast)?
Answer: 196 nM

Question: And the TGI (MCF7 breast)?
Answer: > 50 µM

Question: What about the GI50 (MDA-MB-231 breast) of the same compound?
Answer: 327 nM

Question: What about the TGI (MDA-MB-231 breast) of the same compound?
Answer: > 50 µM

Question: What about the GI50 (MDA-MB-435) of the same compound?
Answer: 90.8 nM

Question: And the TGI (MDA-MB-435)?
Answer: 258 nM

Question: What about the GI50 (MOLT-4 leukemia) of the same compound?
Answer: 312 nM

Question: What about the TGI (MOLT-4 leukemia) of the same compound?
Answer: > 50 µM

Question: And the GI50 (NCI-H226 lung)?
Answer: 372 nM

Question: And the TGI (NCI-H226 lung)?
Answer: 4.75 µM

Question: And the GI50 (NCI-H23 lung)?
Answer: 206 nM

Question: And the GI50 (NCI-H460 lung)?
Answer: 190 nM

Question: And the TGI (NCI-H460 lung)?
Answer: 5.04 µM

Question: And the GI50 (NCI-H522 lung)?
Answer: 126 nM

Question: What about the GI50 (NCI/ADR-RES ovarian) of the same compound?
Answer: 127 nM

Question: What about the TGI (NCI/ADR-RES ovarian) of the same compound?
Answer: 381 nM

Question: What about the GI50 (OVCAR-3 ovarian) of the same compound?
Answer: 160 nM

Question: And the TGI (OVCAR-3 ovarian)?
Answer: 842 nM

Question: What about the GI50 (OVCAR-4 ovarian) of the same compound?
Answer: 732 nM

Question: What about the TGI (OVCAR-4 ovarian) of the same compound?
Answer: > 50 µM

Question: And the GI50 (OVCAR-5 ovarian)?
Answer: 350 nM

Question: And the TGI (OVCAR-5 ovarian)?
Answer: > 50 µM

Question: What about the GI50 (OVCAR-8 ovarian) of the same compound?
Answer: 244 nM

Question: What about the TGI (OVCAR-8 ovarian) of the same compound?
Answer: > 50 µM

Question: What about the GI50 (PC-3 prostate) of the same compound?
Answer: 209 nM

Question: And the TGI (PC-3 prostate)?
Answer: > 50 µM

Question: And the GI50 (RPMI-8226 leukemia)?
Answer: 187 nM

Question: What about the TGI (RPMI-8226 leukemia) of the same compound?
Answer: 1490 nM

Question: And the GI50 (RXF 393 renal)?
Answer: 102 nM

Question: What about the TGI (RXF 393 renal) of the same compound?
Answer: 324 nM

Question: What about the GI50 (SF-268 CNS) of the same compound?
Answer: 680 nM

Question: And the TGI (SF-268 CNS)?
Answer: > 50 µM

Question: And the GI50 (SF-295 CNS)?
Answer: 295 nM

Question: And the TGI (SF-295 CNS)?
Answer: > 50 µM

Question: And the GI50 (SF-539 CNS)?
Answer: 122 nM

Question: What about the TGI (SF-539 CNS) of the same compound?
Answer: 324 nM

Question: What about the GI50 (SK-MEL-2 melanoma) of the same compound?
Answer: 389 nM

Question: What about the TGI (SK-MEL-2 melanoma) of the same compound?
Answer: > 50 µM

Question: What about the GI50 (SK-MEL-28 melanoma) of the same compound?
Answer: 6.1 µM

Question: And the TGI (SK-MEL-28 melanoma)?
Answer: > 50 µM

Question: And the GI50 (SK-MEL-5 melanoma)?
Answer: 192 nM

Question: And the TGI (SK-MEL-5 melanoma)?
Answer: 881 nM

Question: What about the GI50 (SK-OV-3 ovarian) of the same compound?
Answer: 300 nM

Question: What about the TGI (SK-OV-3 ovarian) of the same compound?
Answer: > 50 µM

Question: What about the GI50 (SN12C renal) of the same compound?
Answer: 362 nM

Question: What about the TGI (SN12C renal) of the same compound?
Answer: > 50 µM

Question: What about the GI50 (SNB-19 CNS) of the same compound?
Answer: 262 nM

Question: And the TGI (SNB-19 CNS)?
Answer: > 50 µM

Question: What about the GI50 (SNB-75 CNS) of the same compound?
Answer: 147 nM

Question: What about the GI50 (SR leukemia) of the same compound?
Answer: 196 nM

Question: What about the TGI (SR leukemia) of the same compound?
Answer: > 50 µM

Question: What about the GI50 (SW-620 colon) of the same compound?
Answer: 219 nM

Question: What about the TGI (SW-620 colon) of the same compound?
Answer: > 50 µM

Question: And the GI50 (T-47D breast)?
Answer: 291 nM

Question: What about the TGI (T-47D breast) of the same compound?
Answer: > 50 µM

Question: What about the GI50 (TK-10 renal) of the same compound?
Answer: 965 nM

Question: What about the TGI (TK-10 renal) of the same compound?
Answer: > 50 µM

Question: What about the GI50 (U251 CNS) of the same compound?
Answer: 201 nM

Question: And the TGI (U251 CNS)?
Answer: 4.36 µM

Question: What about the GI50 (UACC-257 melanoma) of the same compound?
Answer: 6 µM

Question: And the TGI (UACC-257 melanoma)?
Answer: > 50 µM

Question: And the GI50 (UACC-62 melanoma)?
Answer: 267 nM

Question: And the TGI (UACC-62 melanoma)?
Answer: > 50 µM

Question: What about the GI50 (UO-31 renal) of the same compound?
Answer: 406 nM

Question: And the TGI (UO-31 renal)?
Answer: > 25.6 µM
